Data as given in ChEMBL document CHEMBL5154907, “Discovery and Anti-Inflammatory Activity Evaluation of a Novel CDK8 Inhibitor through Upregulation of IL-10 for the Treatment of Inflammatory Bowel Disease In Vivo” (J Med Chem, 2022).
The source made the active and inactive calls. The rule behind the calls is not given here.

Columns and labels:
[1] = AUC (0 to infinity) in Sprague-Dawley rat at 10 mg/kg, po measured for 3 to 1440 mins by HPLC analysis; format: ADME, organism-based; details: in vivo
[2] = tested on: BMDC; experiment: Inhibition of NF-kappa-B phosphorylation in R848-stimulated mouse BMDC cells at 1 to 4 uM treated for 2 hrs followed by R848 stimulation for 12 hrs by western blot analysis; format: cell-based; details: dose 1-4 µM, time 14.0 hrs
[3] = Stability in human liver microsomes; format: ADME, Microsome
[4] = Acute toxicity in 12 hr fasted ICR mouse assessed as effect on spleen at 2000 mg/kg, po measured after 7 days by hematoxylin and eosin staining based histopathological analysis; format: organism-based; details: in vivo, 168 h, time 7 day
[5] = tested on: Mus musculus; experiment: Anti-inflammatory activity in C57BL/6 mouse model of inflammatory bowel disease assessed as decrease in DSS-induced JNK phosphorylation in colon tissue at 5 to 20 mg/kg, po measured after 10 days by western blot analysis; format: functional, organism-based; details: dose 5-20 mg/kg, time 10.0 day, DDE = dose-dependent effect
[6] = tested on: Mus musculus; experiment: Anti-inflammatory activity in C57BL/6 mouse model of inflammatory bowel disease assessed as decrease in DSS-induced TNF-alpha levels in serum at 5 to 20 mg/kg, po daily measured after 10 days by ELISA method; format: functional, organism-based; details: dose 5-20 mg/kg, time 10.0 day
[7] = Acute toxicity in 12 hr fasted ICR mouse assessed as effect on heart at 2000 mg/kg, po measured after 7 days by hematoxylin and eosin staining based histopathological analysis; format: organism-based; details: in vivo, 168 h, time 7 day
[8] = AUC (0 to infinity) in Sprague-Dawley rat at 5 mg/kg, iv measured for 3 to 1440 mins by HPLC analysis; format: ADME, organism-based; details: in vivo
[9] = tested on: Mus musculus; experiment: Anti-inflammatory activity in C57BL/6 mouse model of inflammatory bowel disease assessed as reduction in number of DSS-induced inflammatory cells in colon tissue at 5 to 20 mg/kg, po daily measured after 10 days by hematoxylin and eosin staining based histopathological analysis; format: functional, organism-based; details: dose 5-20 mg/kg, time 10.0 day
[10] = tested on: BMDC; experiment: Anti-inflammatory activity against R848-stimulated mouse BMDC cells assessed as upregulation of IL-10 production at 5 uM treated for 24 hrs followed by R848 stimulation for 12 hrs by ELISA method (reference value: 100 %); format: functional; details: time 36 hrs
[11] = target: T1, Cyclin-dependent kinase 8 (Mus musculus) (UniProt Q8R3L8); experiment: Inhibition of CDK8 in R848-stimulated mouse BMDC cells assessed as downregulation of c-Jun phosphorylation at Ser243 at 1 to 4 uM treated for 2 hrs followed by R848 stimulation for 12 hrs by western blot analysis; format: cell-based; details: dose 1-4 µM, time 14.0 hrs
T1 sequence (whole entry): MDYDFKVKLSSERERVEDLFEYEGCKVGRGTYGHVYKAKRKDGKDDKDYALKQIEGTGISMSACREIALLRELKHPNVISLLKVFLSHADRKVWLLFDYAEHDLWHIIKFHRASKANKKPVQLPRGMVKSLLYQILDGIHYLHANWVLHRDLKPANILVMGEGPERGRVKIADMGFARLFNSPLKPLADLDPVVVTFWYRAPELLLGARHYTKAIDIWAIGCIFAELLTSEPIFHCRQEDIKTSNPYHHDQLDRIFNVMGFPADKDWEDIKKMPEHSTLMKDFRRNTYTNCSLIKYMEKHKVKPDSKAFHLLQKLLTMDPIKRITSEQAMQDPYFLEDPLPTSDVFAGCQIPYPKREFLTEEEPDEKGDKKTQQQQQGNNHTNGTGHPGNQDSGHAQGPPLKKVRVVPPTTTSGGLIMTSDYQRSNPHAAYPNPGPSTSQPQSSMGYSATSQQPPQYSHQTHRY

[12] = tested on: Mus musculus; experiment: Anti-inflammatory activity in C57BL/6 mouse model of inflammatory bowel disease assessed as reversal of DSS-induced TLR7 expression in colon tissue at 5 to 20 mg/kg, po measured after 10 days by western blot analysis; format: functional, organism-based; details: dose 5-20 mg/kg, time 10.0 day

Structure (SMILES): CCc1ccccc1NC(=O)c1cncc(-c2ccc(C(=O)N3CCNCC3)cc2)c1
- AUC(0-inf) [1]: 520 ng·h/mL
- inhibition [2]: Active
- Stability [3]: Stable
- Activity [4]: Non-Toxic
- Activity [5]: Dde
- Activity [6]: Active
- Activity [7]: Non-Toxic
- AUC(0-inf) [8]: 642 ng·h/mL
- Activity [9]: Active
- Activity [10]: 88%
- inhibition [11]: Active
- Activity [12]: Active
